Patent US9901582B2, “Polymorphisms in ABCB1 associated with a lack of clinical response to medicaments” (Max-Planck-Gesellschaft zur Förderung der Wisenschaften e. …, priority 2007, dated 2018)
Read-outs that look alike come from different tables or passages of the source.

Legend:
[1] = system: P-gp; settings: after single administration, same mouse model; cited from earlier work
[2] = molecular target: ABCB1 (Homo sapiens, UniProt P08183); settings: cited from earlier work; for Inducer: inducer of ABCB1
Sequence of ABCB1 (P08183 whole entry): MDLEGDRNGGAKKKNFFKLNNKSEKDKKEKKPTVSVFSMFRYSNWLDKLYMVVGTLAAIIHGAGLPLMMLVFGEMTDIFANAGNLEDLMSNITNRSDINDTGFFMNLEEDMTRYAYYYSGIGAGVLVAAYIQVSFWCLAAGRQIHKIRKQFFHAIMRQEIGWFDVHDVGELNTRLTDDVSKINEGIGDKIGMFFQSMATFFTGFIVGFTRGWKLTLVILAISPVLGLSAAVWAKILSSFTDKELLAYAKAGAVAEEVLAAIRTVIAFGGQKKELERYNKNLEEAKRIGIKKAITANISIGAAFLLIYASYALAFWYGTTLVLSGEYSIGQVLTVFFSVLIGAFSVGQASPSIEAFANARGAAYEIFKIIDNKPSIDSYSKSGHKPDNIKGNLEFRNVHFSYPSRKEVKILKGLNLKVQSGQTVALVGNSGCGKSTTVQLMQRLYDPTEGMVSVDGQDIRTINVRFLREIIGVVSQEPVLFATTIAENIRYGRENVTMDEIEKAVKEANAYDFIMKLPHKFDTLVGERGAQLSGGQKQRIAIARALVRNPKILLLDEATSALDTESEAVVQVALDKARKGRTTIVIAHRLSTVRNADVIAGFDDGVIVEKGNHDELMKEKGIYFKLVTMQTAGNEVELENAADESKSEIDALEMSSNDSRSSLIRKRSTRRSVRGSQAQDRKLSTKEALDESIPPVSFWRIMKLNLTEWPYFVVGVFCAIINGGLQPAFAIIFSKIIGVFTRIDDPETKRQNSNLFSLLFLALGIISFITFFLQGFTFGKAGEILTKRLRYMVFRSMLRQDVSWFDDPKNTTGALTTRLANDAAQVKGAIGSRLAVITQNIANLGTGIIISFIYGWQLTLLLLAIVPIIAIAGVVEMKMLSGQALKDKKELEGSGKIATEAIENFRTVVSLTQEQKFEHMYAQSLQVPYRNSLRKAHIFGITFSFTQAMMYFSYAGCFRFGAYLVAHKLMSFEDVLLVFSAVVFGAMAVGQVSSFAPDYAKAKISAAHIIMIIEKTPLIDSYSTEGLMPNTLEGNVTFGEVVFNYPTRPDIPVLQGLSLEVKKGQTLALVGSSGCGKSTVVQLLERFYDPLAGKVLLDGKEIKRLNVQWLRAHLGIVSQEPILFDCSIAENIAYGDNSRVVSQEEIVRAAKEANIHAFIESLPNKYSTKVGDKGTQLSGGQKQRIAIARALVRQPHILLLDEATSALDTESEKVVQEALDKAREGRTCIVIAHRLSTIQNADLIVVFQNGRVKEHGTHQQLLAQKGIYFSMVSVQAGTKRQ

[3] = system: P-gp; settings: mouse
[4] = system: ABCB1 gene; settings: human, in vivo
Procedure: The antidepressant plasma concentration was monitored to assure clinically efficient drug levels.
To this end, we created the residuals of linear regression with the dependent variable drug dose or plasma concentration and the independent variables age and gender. These residuals and SNP genotyping data were tested in an ANOVA analysis for statistical differences between the genotypes. Empiric p-values were calculated by applying 10^6 permutations (residuals randomly redistributed over the genotypes). Fisher's product method (FPM) includes the residuals of the dose or plasma concentration variables and the genotype variables from the SNPs rs2235067, rs4148740, rs2032583, rs4148739, rs11983225, rs2235040, rs12720067, rs7787082, rs10248420, rs10280101 and rs2235015.

[5] = system: P-gp; assay: Organ and plasma concentrations of antidepressants in abcb1ab(−/−) knockout mice versus FVB/N wild-type controls (blood-organ barrier function); settings: for brain concentrations, times higher in the mutant mice compared to wild-type littermates: 11 days, s.c. osmotic infusion pumps; for cerebrum concentration, abcb1ab (−/−) / kidney concentration, abcb1ab (−/−) / liver concentration, abcb1ab (−/−) / lung concentration, abcb1ab (−/−) / plasma concentration, abcb1ab (−/−) / spleen concentration, abcb1ab (−/−) / testes concentration, abcb1ab (−/−): abcb1ab(−/−) mice; for cerebrum concentration, abcb1ab (−/−) / kidney concentration, abcb1ab (−/−) / liver concentration, abcb1ab (−/−) / lung concentration, abcb1ab (−/−) / plasma concentration, abcb1ab (−/−) / spleen concentration, abcb1ab (−/−) / testes concentration, abcb1ab (−/−) / cerebrum concentration, control / kidney concentration, control / liver concentration, control / lung concentration, control / plasma concentration, control / spleen concentration, control / testes concentration, control: after 11 days s.c. via osmotic pumps; for penetration into the brain (organ/plasma concentration ratio), times higher in animals lacking P-gp than in control animals / ratio (−/−)/(+/+), cerebrum / ratio (−/−)/(+/+), kidney / ratio (−/−)/(+/+), liver / ratio (−/−)/(+/+), lung / ratio (−/−)/(+/+), plasma / ratio (−/−)/(+/+), spleen / ratio (−/−)/(+/+), testes / differences in testes/plasma ratio between knockout and control: 11 days s.c.; for penetration into the brain (organ/plasma concentration ratio), times higher in animals lacking P-gp than in control animals / differences in testes/plasma ratio between knockout and control: FIG. 1; for ratio (−/−)/(+/+), cerebrum: cerebrum concentration; for ratio (−/−)/(+/+), cerebrum / ratio (−/−)/(+/+), kidney / ratio (−/−)/(+/+), liver / ratio (−/−)/(+/+), lung / ratio (−/−)/(+/+), plasma / ratio (−/−)/(+/+), spleen / ratio (−/−)/(+/+), testes: knockout/control; for ratio (−/−)/(+/+), kidney: kidney concentration; for ratio (−/−)/(+/+), liver: liver concentration; for ratio (−/−)/(+/+), lung: lung concentration; for ratio (−/−)/(+/+), plasma: plasma concentration; for ratio (−/−)/(+/+), spleen: spleen concentration; for ratio (−/−)/(+/+), testes: testes concentration; for cerebrum concentration, control / kidney concentration, control / liver concentration, control / lung concentration, control / plasma concentration, control / spleen concentration, control / testes concentration, control: wild-type control mice
[6] = male, FVB/N wild-type, in vivo, sc, 11 days
[7] = male, abcb1ab(−/−) on FVB/N background versus FVB/N wild-type, in vivo, sc, 11 days
[8] = male, abcb1ab(−/−) on FVB/N background, in vivo, sc, 11 days

Compound: CN(C)CCC=C1c2ccccc2CCc2ccccc21 [Amitriptyline]
- P-gp substrate status at the blood-brain barrier, earlier studies [1]: substrates of P-gp at the blood-brain barrier

Compound: CCN(CC)CCCC(C)Nc1ccnc2cc(Cl)ccc12 (centres unmarked) [Chloroquine]
- Inhibitor ([2]; inhibitor of ABCB1): (x)

Compound: CN(C)CCCC1(c2ccc(F)cc2)OCc2cc(C#N)ccc21 (centres unmarked) [Citalopram]
- cerebrum concentration, control [3, 6]: 158.27 ng/g or ml
- kidney concentration, control [3, 6]: 962.29 ng/g or ml
- liver concentration, control [3, 6]: 238.02 ng/g or ml
- lung concentration, control [3, 6]: 1238.71 ng/g or ml
- plasma concentration, control [3, 6]: 106.71 ng/g or ml
- spleen concentration, control [3, 6]: 446.96 ng/g or ml
- testes concentration, control [3, 6]: 428.19 ng/g or ml
- brain concentrations, times higher in the mutant mice compared to wild-type littermates [3, 7]: 3.0 times
- cerebrum concentration, abcb1ab (−/−) [3, 8]: 480.93 ng/g or ml
- kidney concentration, abcb1ab (−/−) [3, 8]: 795.74 ng/g or ml
- liver concentration, abcb1ab (−/−) [3, 8]: 240.33 ng/g or ml
- lung concentration, abcb1ab (−/−) [3, 8]: 1238.47 ng/g or ml
- plasma concentration, abcb1ab (−/−) [3, 8]: 89.37 ng/g or ml
- spleen concentration, abcb1ab (−/−) [3, 8]: 468.29 ng/g or ml
- testes concentration, abcb1ab (−/−) [3, 8]: 687.92 ng/g or ml
- P-gp substrate status at the BBB [3]: substrates of P-gp at the BBB
- P-gp substrate status at the blood-brain barrier, earlier studies [1]: substrates of P-gp at the blood-brain barrier
- genotype-dependent differences in plasma levels of patients [4]: small significant difference

Compound: CN(C)CC(c1ccc(O)cc1)C1(O)CCCCC1 [D-Venlafaxine, O-desmethyl venlafaxine]
- brain concentrations, times higher in the mutant mice compared to wild-type littermates [5]: 4.1 times
- cerebrum concentration, abcb1ab (−/−) [5]: 36.99 ng/g or ml
- kidney concentration, abcb1ab (−/−) [5]: 127.32 ng/g or ml
- liver concentration, abcb1ab (−/−) [5]: 88.22 ng/g or ml
- lung concentration, abcb1ab (−/−) [5]: 44.91 ng/g or ml
- plasma concentration, abcb1ab (−/−) [5]: 5.98 ng/g or ml
- spleen concentration, abcb1ab (−/−) [5]: 33.80 ng/g or ml
- testes concentration, abcb1ab (−/−) [5]: 39.19 ng/g or ml
- penetration into the brain (organ/plasma concentration ratio), times higher in animals lacking P-gp than in control animals [5]: 3.6 times
- ratio (−/−)/(+/+), cerebrum [5]: 4.1
- ratio (−/−)/(+/+), kidney [5]: 1.2
- ratio (−/−)/(+/+), liver [5]: 1.1
- ratio (−/−)/(+/+), lung [5]: 0.9
- ratio (−/−)/(+/+), plasma [5]: 1.1
- ratio (−/−)/(+/+), spleen [5]: 1.1
- ratio (−/−)/(+/+), testes [5]: 1.3
- differences in testes/plasma ratio between knockout and control [5]: smaller but still significant differences
- cerebrum concentration, control [5]: 8.97 ng/g or ml
- kidney concentration, control [5]: 107.88 ng/g or ml
- liver concentration, control [5]: 83.15 ng/g or ml
- lung concentration, control [5]: 50.63 ng/g or ml
- plasma concentration, control [5]: 5.50 ng/g or ml
- spleen concentration, control [5]: 29.42 ng/g or ml
- testes concentration, control [5]: 30.18 ng/g or ml

Compound: O=C(CCCN1CCC(O)(c2ccc(Cl)cc2)CC1)c1ccc(F)cc1 [Haloperidol]
- Inhibitor ([2]; inhibitor of ABCB1): (x)

Compound: Cc1ncc2n1-c1ccc(Cl)cc1C(c1ccccc1F)=NC2 [Midazolam]
- Inhibitor [2]: (x)

Compound: CN1CCN2c3ncccc3Cc3ccccc3C2C1 (centres unmarked) [Mirtazapine]
- cerebrum concentration, control [3, 6]: 34.90 ng/g or ml
- intestine concentration, control [3, 6]: 19.96 ng/g or ml
- kidney concentration, control [3, 6]: 70.93 ng/g or ml
- liver concentration, control [3, 6]: 12.39 ng/g or ml
- lung concentration, control [3, 6]: 61.47 ng/g or ml
- plasma concentration, control [3, 6]: 7.66 ng/g or ml
- spleen concentration, control [3, 6]: 67.54 ng/g or ml
- testes concentration, control [3, 6]: 61.22 ng/g or ml
- ratio (−/−)/(+/+), cerebrum [3, 7]: 1.5
- ratio (−/−)/(+/+), intestine [3, 7]: 1.2
- ratio (−/−)/(+/+), kidney [3, 7]: 1.3
- ratio (−/−)/(+/+), liver [3, 7]: 1.7
- ratio (−/−)/(+/+), lung [3, 7]: 1.7
- ratio (−/−)/(+/+), plasma [3, 7]: 1.5
- ratio (−/−)/(+/+), spleen [3, 7]: 1.3
- ratio (−/−)/(+/+), testes [3, 7]: 1.8
- cerebrum concentration, abcb1ab (−/−) [3, 8]: 51.31 ng/g or ml
- intestine concentration, abcb1ab (−/−) [3, 8]: 24.58 ng/g or ml
- kidney concentration, abcb1ab (−/−) [3, 8]: 91.22 ng/g or ml
- liver concentration, abcb1ab (−/−) [3, 8]: 20.59 ng/g or ml
- lung concentration, abcb1ab (−/−) [3, 8]: 105.36 ng/g or ml
- plasma concentration, abcb1ab (−/−) [3, 8]: 11.17 ng/g or ml
- spleen concentration, abcb1ab (−/−) [3, 8]: 86.19 ng/g or ml
- testes concentration, abcb1ab (−/−) [3, 8]: 110.29 ng/g or ml
- P-gp substrate status at the BBB [3]: not influenced by P-gp
- differences in testes/plasma ratio between knockout and control ([3]; in vivo, sc): not

Compound: CCc1nn(CCCN2CCN(c3cccc(Cl)c3)CC2)c(=O)n1CCOc1ccccc1 [Nefazodone]
- Inducer [2]: (x)

Compound: Fc1ccc([C@@H]2CCNC[C@H]2COc2ccc3c(c2)OCO3)cc1 [Paroxetine]
- P-gp substrate status at the blood-brain barrier, earlier studies [1]: substrates of P-gp at the blood-brain barrier

Compound: O=c1n(CCCN2CCN(c3cccc(Cl)c3)CC2)nc2ccccn12 [Trazodone]
- Inducer [2]: (x)

Compound: COc1ccc(C(CN(C)C)C2(O)CCCCC2)cc1 (centres unmarked) [Venlafaxine]
- P-gp substrate status at the blood-brain barrier, earlier studies [1]: substrates of P-gp at the blood-brain barrier
- brain concentrations, times higher in the mutant mice compared to wild-type littermates [5]: 1.7 times
- cerebrum concentration, abcb1ab (−/−) [5]: 456.32 ng/g or ml
- kidney concentration, abcb1ab (−/−) [5]: 1054.88 ng/g or ml
- liver concentration, abcb1ab (−/−) [5]: 323.22 ng/g or ml
- lung concentration, abcb1ab (−/−) [5]: 672.59 ng/g or ml
- plasma concentration, abcb1ab (−/−) [5]: 70.57 ng/g or ml
- spleen concentration, abcb1ab (−/−) [5]: 564.20 ng/g or ml
- testes concentration, abcb1ab (−/−) [5]: 842.61 ng/g or ml
- penetration into the brain (organ/plasma concentration ratio), times higher in animals lacking P-gp than in control animals [5]: 1.8 times
- ratio (−/−)/(+/+), cerebrum [5]: 1.7
- ratio (−/−)/(+/+), kidney [5]: 1.0
- ratio (−/−)/(+/+), liver [5]: 1.0
- ratio (−/−)/(+/+), lung [5]: 0.9
- ratio (−/−)/(+/+), plasma [5]: 1.0
- ratio (−/−)/(+/+), spleen [5]: 1.0
- ratio (−/−)/(+/+), testes [5]: 1.2
- differences in testes/plasma ratio between knockout and control [5]: smaller but still significant differences
- P-gp substrate status at the BBB ([5]; this study, administration over 11 days): substrates of P-gp at the BBB
- cerebrum concentration, control [5]: 261.14 ng/g or ml
- kidney concentration, control [5]: 1035.27 ng/g or ml
- liver concentration, control [5]: 314.59 ng/g or ml
- lung concentration, control [5]: 747.38 ng/g or ml
- plasma concentration, control [5]: 71.37 ng/g or ml
- spleen concentration, control [5]: 581.95 ng/g or ml
- testes concentration, control [5]: 715.92 ng/g or ml
